The values that follow come from the Deep4Chem optical property database.

The data set in a line: solvent given as SMILES.

On to `C1=C(c2ccc(-c3cccs3)s2)CCCC1`, for which the emission maximum is, setting by setting: (in C1CCOC1) 423 nm; (in CC#N) 415 nm; (in CCCCCC) 411 nm; (in CCO) 445 nm; (in OCCOCCO) 446 nm; (in c1ccncc1) 423 nm.
In the case of `CCC1=C(C)C2=C(c3cc(C(=O)Cl)cc(C4=C5C(C)=C(CC)C(C)=[N+]5[B-](F)(F)n5c(C)c(CC)c(C)c54)c3)c3c(C)c(CC)c(C)n3[B-](F)(F)[N+]2=C1C`, the emission maximum is, setting by setting: (in C1CCOC1) 549 nm; (in CC#N) 548 nm; (in CN(C)C=O) 560 nm; (in Cc1ccccc1) 562 nm; (in ClC(Cl)Cl) 562 nm.
As to `COc1ccc(C2=C(C)C3=C(c4c(-c5ccccn5)nc5ccccn45)c4c(C)c(-c5ccc(OC)cc5)c(C)n4[B-](F)(F)[N+]3=C2C)cc1`, the emission maximum (in ClCCl) was 608 nm.
Consider `O=C1Cc2ccc(cc2)CC(=O)Cc2ccc(c3nsnc23)C1`, for which the emission maximum is, setting by setting: (in C1CCCCC1) 468 nm; (in CC#N) 495 nm; (in ClC(Cl)Cl) 488 nm.
For the compound `Cc1ccc(/C=C/c2nc3ccccc3s2)cc1`, the emission maximum (in C1CCCCC1) stood at 390 nm and the emission maximum (in CO) worked out at 405 nm.
`Fc1c(F)c(-n2c3ccccc3c3ccccc32)c(F)c(F)c1/C=C/C(=C(c1ccccc1)c1ccccc1)c1ccccc1` had an emission maximum (in Cc1ccccc1) of 445 nm.
Regarding `CCCN1c2ccccc2Sc2cc(/C=C\c3cc(=O)oc4ccc(C)cc34)ccc21`, where the note is “in ClC(Cl)Cl”, the emission maximum stood at 637 nm.
As to `O=[N+]([O-])c1ccc(O)c(-c2nc3c(c4c2-c2ccccc2CC4)-c2ccccc2CC3)c1`, the emission maximum (in ClCCl) is listed as 541 nm.
Consider `CCCCCCCC1=C(C)C(=O)n2c1cc1[nH]c(C(=O)OC)c(C)c1c2=O`, for which the emission maximum turned out to be 448 nm (in C1CCCCC1); 500 nm (in CO); 482 nm (in CS(C)=O); 448 nm (in ClC(Cl)Cl); 441 nm (in c1ccccc1).
`CN(C)c1ccc(-c2cc(-c3ccc(C#N)cc3)nc(-c3ccccc3)n2)cc1` had an emission maximum (in ClC(Cl)Cl) of 495 nm.
As for `CCCC1=Cc2nc1ccc1[nH]c(cc1CCC)c1nc(c(O)cc3[nH]c2cc3CCC)C(CCC)=C1`, under “in Cc1ccccc1”, the emission maximum is listed as 683 nm.
With `CN(C)c1ccc2nc(-c3ccc(C=C4C(=O)c5ccccc5C4=O)cc3)sc2c1`, the emission maximum is, setting by setting: (in C1CCCCC1) 535 nm; (in ClC(Cl)Cl) 727 nm.
In the case of `COc1ccc(C2=[N+]3C(=Nc4c(-c5ccccc5)cc(-c5ccc(OC)cc5)n4[B-]3(F)F)C(c3ccccc3)=C2)cc1`, the emission maximum runs as follows: (in ClC(Cl)Cl) 715 nm; (in ClCCl) 715 nm.
Consider `O=C1c2cc(-c3ccccc3)ccc2-c2ccc(-c3ccccc3)cc21`, for which the emission maximum (in C1CCOC1) came to 360 nm.
In turn, `Cc1cc(C)c(-c2nnc(-c3ccc(-n4c5ccccc5c5ccccc54)c(C)c3)o2)c(C)c1` yielded an emission maximum (in CCO) of 440 nm and an emission maximum (in Cc1ccccc1) of 377 nm.
Take `CC[N+]1(CC)CN2C(=N1)C(C(=O)O)=Cc1cc(C)c(C)cc12`: the emission maximum (in O) amounted to 466 nm.
Where the note is “in C1CCOC1”, `CCCCCOc1cc2oc(=O)c3c4ccc(C#N)cc4c4ccc5cccc6c(c1)c2c3c4c56` came in with an emission maximum of 444 nm.
Take `CCCCN(CCCC)c1ccc2c(c1)C#CC#Cc1cc(C(F)(F)F)ccc1C#Cc1cc(c3cc1C#Cc1ccc(C(F)(F)F)cc1C#CC#Cc1cc(N(CCCC)CCCC)ccc1C#C3)C#C2`: the emission maximum reads like this: (in ClCCl) 550 nm; (in c1ccccc1) 503 nm.
Under “in Cc1ccccc1”, `N#Cc1ccc(-n2c3ccccc3c3c2c2ccccc2n3-c2ccccc2)cc1` gave an emission maximum of 460 nm.
Where the note is “in ClCCl”, `COc1ccc(-c2cccc3ncc(-c4ccc(C#N)cc4)n23)cc1` returned an emission maximum of 447 nm.
In turn, `C[Si](C)(C)c1cc2c(cc3ccc4cccc5ccc2c3c45)[nH]1` returned an emission maximum (in CCOC(C)=O) of 406 nm.
Under “in ClCCl”, `CC[C@H](C)COc1ccc(C2=C3C(C)=C(c4ccc5ccc6cccc7ccc4c5c67)C(C)=[N+]3[B-](F)(F)n3c(C)c(-c4ccc5ccc6cccc7ccc4c5c67)c(C)c32)cc1` returned an emission maximum of 585 nm.
Take `[C-]#[N+]c1ccc(-c2ccc(N)cc2)cc1`: the emission maximum is listed as 354 nm (in C1CCCCC1); 396 nm (in C1CCOC1); 383 nm (in C1COCCO1); 410 nm (in CC#N); 407 nm (in CC(C)=O); 353 nm (in CCCCCC). The emission maximum is, setting by setting: (in CCOC(C)=O) 397 nm; (in CN(C)C=O) 423 nm; (in CO) 419 nm; (in CS(C)=O) 424 nm; (in Cc1ccccc1) 371 nm; (in ClC(Cl)Cl) 398 nm. The emission maximum (in ClCCl) is reported as 390 nm, the emission maximum (in O) worked out at 457 nm and the emission maximum (in c1ccncc1) was found to be 415 nm.
With `CC1(C)CC(/C=C/c2ccc(-n3ccnc3)cc2)=CC(=C(C#N)C#N)C1`, the emission maximum by setting is: (in C1CCOC1) 524 nm; (in CC#N) 526 nm; (in CCO) 520 nm; (in CCOC(C)=O) 518 nm; (in ClCCl) 504 nm; (in c1ccccc1) 511 nm.
Where the note is “in ClC(Cl)Cl”, `CC(C)(C)c1ccc2c(c1)oc1nc3oc4ccc(-n5c6ccccc6c6ccccc65)cc4c3cc12` showed an emission maximum of 417 nm.
`Cc1ccc(-c2nc(-c3ccccc3O)[nH]c2-c2ccc(C)cc2)cc1`: where the note is “in CO”, the emission maximum turned out to be 430 nm.
Where the note is “in ClC(Cl)Cl”, `CCOC(CN1C(=O)C2=C(c3ccsc3)N(CC(OCC)OCC)C(=O)C2=C1c1ccsc1)OCC` returned an emission maximum of 524 nm.
On to `Cn1cccc1-c1ccc(C#N)cc1`, for which the emission maximum runs as follows: (in C1CCOC1) 383 nm; (in CC#N) 407 nm; (in CCCCCC) 357 nm; (in CCCCOCCCC) 367 nm; (in CCOCC) 371 nm.
For the compound `Cc1ccccc1C1=C2C=CC(=[N+](C)C)C=[C]2[Ge]([CH3])([CH3])[c]2cc(N(C)C)ccc21`, the emission maximum (in O) is recorded as 649 nm.
For the compound `CCC1=C(C)C(=O)n2c1cc1c(C)c(CC(=O)O)c(C)n1c2=O`, the emission maximum by setting is: (in CO) 535 nm; (in CS(C)=O) 505 nm; (in ClC(Cl)Cl) 485 nm; (in c1ccccc1) 465 nm.
As to `CCOC(=O)c1ccc(C2=CC3=c4cc(-c5ccc(C(=O)OCC)cc5)c5nc(C(F)(F)C(F)(F)C(F)(F)F)nc6c(-c7ccc(C(=O)OCC)cc7)cc(c4c65)C4=CC(c5ccc(C(=O)OCC)cc5)=C5N=C(C(F)(F)C(F)(F)C(F)(F)F)N=C2C5C43)cc1` (stereo not drawn), the emission maximum (in C1CCOC1) is on record as 523 nm.
Compound `C1=Cc2ccc(N(c3ccccc3)c3ccccc3)cc2Cc2cc(N(c3ccccc3)c3ccccc3)ccc21` registered an emission maximum (in ClCCl) of 440 nm.
As for `Cc1cc(C)c2c(c1)c1cc(C)cc(C)c1n2-c1ccc2c(c1)Sc1cc3c(cc1B2c1c(C(C)C)cc(C(C)C)cc1C(C)C)B(c1c(C(C)C)cc(C(C)C)cc1C(C)C)c1ccccc1S3`, the emission maximum was 465 nm (in Cc1ccccc1) and 483 nm (in O=P(c1ccccc1)(c1ccccc1)c1ccc2oc3ccc(P(=O)(c4ccccc4)c4ccccc4)cc3c2c1).
As to `C[n+]1ccn(CCCCc2ccc3c(c2)c2ccccc2n3-c2cc(C#N)c(C#N)cc2-n2c3ccccc3c3cc(CCCCn4cc[n+](C)c4)ccc32)c1`, for the setting “in CC#N”, the emission maximum is reported as 572 nm.
In the case of `CC1(C)c2ccccc2N(c2ccc(-c3ncc(C#N)cn3)cc2)c2ccccc21`, the emission maximum came out at 543 nm (in Cc1ccccc1) and 541 nm (in N#Cc1ccc2c(c1)c1ccccc1n2-c1cccc(-n2c3ccccc3c3ccccc32)c1).
For `CCCCCCCCC1(CCCCCCCC)c2cc(-c3ccc(C(F)(F)F)cc3)ccc2-c2ccc(N(c3ccc(-n4c5ccccc5c5ccccc54)cc3)c3ccc4c(c3)C(CCCCCCCC)(CCCCCCCC)c3cc(-c5ccc(C(F)(F)F)cc5)ccc3-4)cc21`, the emission maximum is, setting by setting: (in C1CCOC1) 455 nm; (in C1COCCO1) 434 nm; (in CC#N) 495 nm; (in CC(C)=O) 477 nm; (in CCCCCC) 416 nm; (in CCCCOCCCC) 425 nm. In addition, the emission maximum (in CCN(CC)CC) is 423 nm; the emission maximum (in CCOC(C)=O) is on record as 450 nm; the emission maximum (in CCOCC) turned out to be 432 nm; the emission maximum (in CN(C)C=O) is 493 nm; the emission maximum (in CS(C)=O) was 486 nm; the emission maximum (in Cc1ccccc1) was determined as 427 nm. This compound had an emission maximum (in ClC(Cl)Cl) of 445 nm, an emission maximum (in ClCCl) of 465 nm and an emission maximum (in c1ccccc1) of 428 nm.
As to `c1ccc(-c2ccc3c4ccc(-c5ccccc5)c5c(-c6ccccc6)ccc(c6ccc(-c7ccccc7)c2c36)c54)cc1`, where the note is “in ClCCl”, the emission maximum was 520 nm.
For the setting “in ClC(Cl)Cl”, `COc1ccc2cc(-c3ccc(-c4cc5ccc(OC)cc5oc4=O)cc3)c(=O)oc2c1` displayed an emission maximum of 434 nm.
Consider `CC(=O)c1ccc(NC(=O)c2ccc(N(C)C)cc2)cc1`, for which the emission maximum is reported as 345 nm (in C1CCCCC1), 468 nm (in C1CCOC1), 550 nm (in CC#N) and 470 nm (in CCOCC).
`CN(C)c1ccc(-c2ccc(-c3cc(-c4ccccc4)c(-c4ccccc4)c(-c4ccccc4)c3-c3ccccc3)s2)cc1` displayed an emission maximum (in ClC(Cl)Cl) of 419 nm.
Take `COc1ccc2nc(/N=N/c3ccc(N(C)C)cc3)sc2c1`: the emission maximum runs as follows: (in CC#N) 574 nm; (in ClCCl) 572 nm.
As for `COc1ccc(-c2csc(/C(C#N)=N\Nc3ccc(C#N)cc3)n2)cc1`, the emission maximum runs as follows: (in CC#N) 505 nm; (in CCO) 508 nm; (in Cc1ccccc1) 494 nm; (in ClCCl) 527 nm.
For the compound `CN(C)c1ccc2c(-c3cc(C(=O)[O-])ccc3C(=O)[O-])c3ccc(=[N+](C)C)cc-3oc2c1`, the emission maximum reads like this: (in CCO) 564 nm; (in O) 575 nm.
As to `N#Cc1nc2cnc(N)nc2n1Cc1ccccc1`, the emission maximum by setting is: (in C1COCCO1) 381 nm; (in CC#N) 381 nm; (in CO) 398 nm; (in ClCCl) 381 nm; (in O) 406 nm.
